Data: PubChem BioAssay AID192 (DTP/NCI, 2004)
“And” between values parts separate entries of the source, which are not always exact repeats. Identical values can stand only once. Toxic doses and inconclusive results are not listed. Rule for the calls: active = survival T/C of 150% or more; inactive = T/C below 125% in these data.

System: BDF1 mice, B16 melanoma ip, median survival T/C
Assay: NCI In Vivo Anticancer Drug Screen. Data for tumor model B16 Melanoma (intraperitoneal) in B6D2F1 (BDF1) mice
Details: endpoint: median survival time, higher = longer survival
Experimental: The antitumor activity of compounds was measured in mice bearing transplantable tumors. Survival or tumor size were measured and the results are expressed as the measurement made in the treated group (T) divided by the measurement made in the vehicle treated control group (C). The tumor model used in this assay is B16 Melanoma (intraperitoneal) in B6D2F1 (BDF1) mice

[1] = dose: 100.0 mg/kg/injection, schedule: Q04DX003 (ip), vehicle: Klucel (hydroxypropylcellulose) (HPC)
[2] = dose: 200.0 mg/kg/injection, schedule: Q04DX003 (ip), vehicle: Klucel (hydroxypropylcellulose) (HPC)
[3] = dose: 12.5 mg/kg/injection, schedule: Q01DX009 (ip), vehicle: saline
[4] = dose: 25.0 mg/kg/injection, schedule: Q01DX009 (ip), vehicle: saline
[5] = dose: 50.0 mg/kg/injection, schedule: Q01DX009 (ip), vehicle: saline
[6] = dose: 100.0 mg/kg/injection, schedule: Q01DX009 (ip), vehicle: saline
[7] = dose: 50.0 mg/kg/injection, schedule: Q01DX009 (ip), vehicle: Klucel (hydroxypropylcellulose) (HPC)
[8] = dose: 100.0 mg/kg/injection, schedule: Q01DX009 (ip), vehicle: Klucel (hydroxypropylcellulose) (HPC)
[9] = dose: 200.0 mg/kg/injection, schedule: Q01DX009 (ip), vehicle: Klucel (hydroxypropylcellulose) (HPC)
[10] = dose: 12.5 mg/kg/injection, schedule: Q01DX009 (ip), vehicle: Klucel (hydroxypropylcellulose) (HPC)

Measured: T/C

CCCCCCCCCCCCSC(=O)CCC(=O)O
inactive: dose: 50.0 mg/kg/injection, schedule: Q04DX003 (ip), vehicle: Klucel (hydroxypropylcellulose) (HPC) 108 % of control | [1] 108 % of control | [2] 102 % of control

CNCCOC(c1ccccc1)c1ccccc1C (stereo not drawn)
inactive: dose: 3.12 mg/kg/injection, schedule: Q01DX009 (ip), vehicle: saline 97 % of control | dose: 6.25 mg/kg/injection, schedule: Q01DX009 (ip), vehicle: saline 97 % of control | [3] 102 % of control | [4] 100 % of control | [5] 104 % of control

NC(=S)N/N=C/c1ccc(O)cn1
inactive: dose: 9.4 mg/kg/injection, schedule: Q01DX009 (ip), vehicle: saline with Tween-80 103 % of control | [3] 108 % of control | dose: 18.8 mg/kg/injection, schedule: Q01DX009 (ip), vehicle: saline with Tween-80 102 % of control and 119 % of control and 121 % of control | [4] 110 % of control | dose: 37.5 mg/kg/injection, schedule: Q01DX009 (ip), vehicle: saline with Tween-80 109 % of control and 111 % of control and 120 % of control | [5] 113 % of control and 122 % of control | dose: 75.0 mg/kg/injection, schedule: Q01DX009 (ip), vehicle: saline with Tween-80 114 % of control and 121 % of control and 124 % of control | [6] 115 % of control and 120 % of control | dose: 150.0 mg/kg/injection, schedule: Q01DX009 (ip), vehicle: saline with Tween-80 105 % of control and 115 % of control

CC(=O)OC1C(=O)C(O)C(C)OC1O[C@@H]1C[C@@]2(C)[C@@H]3CC=C4[C@@H](C[C@H](O)C(=O)C4(C)C)[C@]3(C)C(=O)C[C@]2(C)[C@H]1[C@@](C)(O)C(=O)/C=C/C(C)(C)O (stereo partly drawn)
inactive: dose: 1.0 mg/kg/injection, schedule: Q01DX009 (ip), vehicle: saline 92 % of control | dose: 2.0 mg/kg/injection, schedule: Q01DX009 (ip), vehicle: saline 92 % of control

CN(C)/N=N/c1[nH]ncc1C(N)=O
inactive: dose: 50.0 mg/kg/injection, schedule: Q01DX009 (ip), vehicle: carboxymethylcellulose (CMC) 105 % of control

Cc1ccc(Cl)cc1NS(=O)(=O)c1ccccc1
inactive: dose: 100.0 mg/kg/injection, schedule: Q01DX009 (ip), vehicle: saline with Tween-80 90 % of control | dose: 200.0 mg/kg/injection, schedule: Q01DX009 (ip), vehicle: saline with Tween-80 95 % of control | dose: 400.0 mg/kg/injection, schedule: Q01DX009 (ip), vehicle: saline with Tween-80 90 % of control

Cc1ccc(S(=O)(=O)N2CCC(O)(c3ccccc3)CC2)cc1
inactive: dose: 20.0 mg/kg/injection, schedule: Q01DX009 (ip), vehicle: Klucel (hydroxypropylcellulose) (HPC) 87 % of control | [1] 95 % of control | [2] 91 % of control | dose: 400.0 mg/kg/injection, schedule: Q01DX009 (ip), vehicle: Klucel (hydroxypropylcellulose) (HPC) 119 % of control | dose: 400.0 mg/kg/injection, schedule: Q04DX003 (ip), vehicle: Klucel (hydroxypropylcellulose) (HPC) 97 % of control

BrCCCC1CCCCC1
inactive: [7] 92 % of control | [8] 100 % of control | [9] 92 % of control

CCOC(=O)C(NC(=O)NC)C(=O)OCC
inactive: dose: 75.0 mg/kg/injection, schedule: Q01DX009 (ip), vehicle: Klucel (hydroxypropylcellulose) (HPC) 102 % of control | dose: 150.0 mg/kg/injection, schedule: Q01DX009 (ip), vehicle: Klucel (hydroxypropylcellulose) (HPC) 103 % of control | dose: 300.0 mg/kg/injection, schedule: Q01DX009 (ip), vehicle: Klucel (hydroxypropylcellulose) (HPC) 100 % of control

Nc1nc2c(c(=O)[nH]1)NC(CCNc1ccc(C(=O)NC(CCC(=O)O)C(=O)O)cc1)CN2 (stereo not drawn)
inactive: [4] 94 % of control | [5] 102 % of control | [6] 110 % of control

O=C1C=C(c2ccccc2)C(=O)C=C1c1ccccc1
inactive: dose: 6.0 mg/kg/injection, schedule: Q04DX003 (ip), vehicle: gum acacia 100 % of control | dose: 12.0 mg/kg/injection, schedule: Q04DX003 (ip), vehicle: gum acacia 91 % of control | dose: 25.0 mg/kg/injection, schedule: Q04DX003 (ip), vehicle: gum acacia 92 % of control and 93 % of control

C[C@]12C=CC(=O)C=C1CC[C@@H]1[C@@H]2[C@@H](O)C[C@@]2(C)[C@H]1CC[C@]2(O)C(=O)CO
inactive: dose: 10.0 mg/kg/injection, schedule: Q02DX009 (ip), vehicle: Klucel (hydroxypropylcellulose) (HPC) 91 % of control | dose: 20.0 mg/kg/injection, schedule: Q02DX009 (ip), vehicle: Klucel (hydroxypropylcellulose) (HPC) 100 % of control | dose: 40.0 mg/kg/injection, schedule: Q02DX009 (ip), vehicle: Klucel (hydroxypropylcellulose) (HPC) 96 % of control | dose: 80.0 mg/kg/injection, schedule: Q02DX009 (ip), vehicle: Klucel (hydroxypropylcellulose) (HPC) 103 % of control | dose: 160.0 mg/kg/injection, schedule: Q02DX009 (ip), vehicle: Klucel (hydroxypropylcellulose) (HPC) 109 % of control and 115 % of control | dose: 320.0 mg/kg/injection, schedule: Q02DX009 (ip), vehicle: Klucel (hydroxypropylcellulose) (HPC) 92 % of control

CCC[CH2][Ge]([Cl])([Cl])[CH2]CCC
inactive: [10] 100 % of control | dose: 25.0 mg/kg/injection, schedule: Q01DX009 (ip), vehicle: Klucel (hydroxypropylcellulose) (HPC) 90 % of control

CCCCCCCNC(=O)Nc1cccc(Cl)c1C
inactive: [7] 99 % of control | [8] 90 % of control | [9] 95 % of control

Clc1ccc2c(c1)/C(=C/c1cccnc1)c1cc(Cl)cc(Cl)c1-2
inactive: dose: 50.0 mg/kg/injection, schedule: Q01DX009 (ip), vehicle: saline with Tween-80 86 % of control

[CH3][Sn]([CH3])([CH3])[S]C(=S)N1CCOCC1
inactive: dose: 0.75 mg/kg/injection, schedule: Q01DX009 (ip), vehicle: Klucel (hydroxypropylcellulose) (HPC) 100 % of control | dose: 1.5 mg/kg/injection, schedule: Q01DX009 (ip), vehicle: Klucel (hydroxypropylcellulose) (HPC) 95 % of control

CN(C)S(=O)(=O)c1ccc2c(c1)N(CCCN1CCN(S(C)(=O)=O)CC1)c1ccccc1S2
inactive: dose: 0.78 mg/kg/injection, schedule: Q01DX009 (ip), vehicle: Klucel (hydroxypropylcellulose) (HPC) 87 % of control | dose: 1.56 mg/kg/injection, schedule: Q01DX009 (ip), vehicle: Klucel (hydroxypropylcellulose) (HPC) 90 % of control | dose: 3.12 mg/kg/injection, schedule: Q01DX009 (ip), vehicle: Klucel (hydroxypropylcellulose) (HPC) 90 % of control | [10] 95 % of control

NC(CCCC(=O)O)P(=O)(O)O (stereo not drawn)
inactive: [7] 98 % of control | [8] 98 % of control

Cc1cnc(=S)[nH]c1N
inactive: [7] 108 % of control | [8] 97 % of control | [9] 94 % of control

Cc1ccc2c(C)c3ccc4ccccc4c3c[n+]2c1
inactive: dose: 10.0 mg/kg/injection, schedule: Q01DX009 (ip), vehicle: saline with Tween-80 104 % of control | dose: 20.0 mg/kg/injection, schedule: Q01DX009 (ip), vehicle: saline with Tween-80 106 % of control | dose: 40.0 mg/kg/injection, schedule: Q01DX009 (ip), vehicle: saline with Tween-80 100 % of control

OCCN1CCC2(CC1)SSC1(CCN(CCO)CC1)S2
inactive: [6] 117 % of control | dose: 200.0 mg/kg/injection, schedule: Q01DX009 (ip), vehicle: saline 112 % of control
